Reference: patent US20240293405A1, “(1H-PYRROLO[2,3-B]PYRIDIN-1-YL)PYRIMIDIN-2-YL-AMINO-PHENYL-ACRYLAMIDE INHIBITORS OF EGFR FOR USE IN THE TREATMENT OF BRAIN TUMORS” (Dana-Farber Cancer Institute, Inc., priority 2021, published 2024)

Assays:
Respiratory rate = assay type: in vivo; settings: dog, PO up to 100 mg/kg
[1] = Oral rat dose-range toxicity study; assay type: in vivo
Method: Male and female Sprague-Dawley rats were given Compound 1 orally by gavage either once (30, 100, 500, 1000 mg/kg/day) or once daily for up to 14 days (30, 100, 300 mg/kg/day). […] […]; this group was terminated on Day 9. […] The STD10 was estimated to be 100 mg/kg/day in this study.

NSCLC brain metastases = NSCLC brain metastases in SCID mice
PDGFRB = PDGFRB (Homo sapiens, UniProt P09619); test: Kinase binding constant (Kd)
Method: (§1) EGFR amplifications and/or mutations are common in GBM, estimated to occur in over 50% of patients.
(§2) Compound 1 and Compound 2 (major metabolite) were evaluated in a panel of 468 human kinases and disease relevant mutant variants. Compound 1 and Compound 2 bound to few non-mutant kinases at <1% of control. […] While there is some variability between Compound 1 and Compound 2, it is clear that both compounds are very effective at binding to a large panel of mutant kinases. […] Binding constant to wild type EGFR was 4.9 nM.

ALK = ALK (Homo sapiens, UniProt Q9UM73); test: Kinase binding constant (Kd)
Method: as §1, §2

PDGFRA = PDGFRA (Homo sapiens, UniProt P16234); test: Kinase binding constant (Kd)
Method: as §1, §2

[2] = test system: H1975 cells (L858R/T790M); settings: Wang 2020, read-out: IC50, growth inhibition; cited from earlier work

Sequence of PDGFRA (P16234 24-1089): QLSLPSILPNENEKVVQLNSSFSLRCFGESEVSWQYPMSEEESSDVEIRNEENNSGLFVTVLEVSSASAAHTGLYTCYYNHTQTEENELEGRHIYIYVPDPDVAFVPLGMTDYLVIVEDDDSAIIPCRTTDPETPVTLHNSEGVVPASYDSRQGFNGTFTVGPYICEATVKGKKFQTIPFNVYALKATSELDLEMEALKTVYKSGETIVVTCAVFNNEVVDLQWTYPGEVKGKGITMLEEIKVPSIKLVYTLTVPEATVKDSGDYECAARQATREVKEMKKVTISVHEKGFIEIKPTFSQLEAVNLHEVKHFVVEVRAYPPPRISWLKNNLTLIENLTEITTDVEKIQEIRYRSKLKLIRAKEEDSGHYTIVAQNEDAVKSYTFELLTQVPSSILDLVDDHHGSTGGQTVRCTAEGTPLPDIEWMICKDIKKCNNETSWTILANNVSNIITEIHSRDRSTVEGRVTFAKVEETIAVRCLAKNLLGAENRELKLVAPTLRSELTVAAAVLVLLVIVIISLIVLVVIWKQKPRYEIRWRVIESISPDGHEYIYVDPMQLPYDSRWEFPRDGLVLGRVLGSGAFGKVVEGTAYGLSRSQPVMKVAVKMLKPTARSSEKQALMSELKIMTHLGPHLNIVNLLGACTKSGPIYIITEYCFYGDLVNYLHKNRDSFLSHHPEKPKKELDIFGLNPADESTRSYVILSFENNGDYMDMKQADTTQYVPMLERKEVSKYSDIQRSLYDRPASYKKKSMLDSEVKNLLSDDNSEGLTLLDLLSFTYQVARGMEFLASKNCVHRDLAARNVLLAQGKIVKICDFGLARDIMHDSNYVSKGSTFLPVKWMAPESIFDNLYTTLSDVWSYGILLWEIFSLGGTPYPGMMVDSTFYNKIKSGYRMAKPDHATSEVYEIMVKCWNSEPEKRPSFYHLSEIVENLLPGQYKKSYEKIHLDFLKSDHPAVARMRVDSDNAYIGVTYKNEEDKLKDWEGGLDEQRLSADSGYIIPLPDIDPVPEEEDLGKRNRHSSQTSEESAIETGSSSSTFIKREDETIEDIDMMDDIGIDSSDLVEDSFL
Sequence of PDGFRB (P09619 33-1106): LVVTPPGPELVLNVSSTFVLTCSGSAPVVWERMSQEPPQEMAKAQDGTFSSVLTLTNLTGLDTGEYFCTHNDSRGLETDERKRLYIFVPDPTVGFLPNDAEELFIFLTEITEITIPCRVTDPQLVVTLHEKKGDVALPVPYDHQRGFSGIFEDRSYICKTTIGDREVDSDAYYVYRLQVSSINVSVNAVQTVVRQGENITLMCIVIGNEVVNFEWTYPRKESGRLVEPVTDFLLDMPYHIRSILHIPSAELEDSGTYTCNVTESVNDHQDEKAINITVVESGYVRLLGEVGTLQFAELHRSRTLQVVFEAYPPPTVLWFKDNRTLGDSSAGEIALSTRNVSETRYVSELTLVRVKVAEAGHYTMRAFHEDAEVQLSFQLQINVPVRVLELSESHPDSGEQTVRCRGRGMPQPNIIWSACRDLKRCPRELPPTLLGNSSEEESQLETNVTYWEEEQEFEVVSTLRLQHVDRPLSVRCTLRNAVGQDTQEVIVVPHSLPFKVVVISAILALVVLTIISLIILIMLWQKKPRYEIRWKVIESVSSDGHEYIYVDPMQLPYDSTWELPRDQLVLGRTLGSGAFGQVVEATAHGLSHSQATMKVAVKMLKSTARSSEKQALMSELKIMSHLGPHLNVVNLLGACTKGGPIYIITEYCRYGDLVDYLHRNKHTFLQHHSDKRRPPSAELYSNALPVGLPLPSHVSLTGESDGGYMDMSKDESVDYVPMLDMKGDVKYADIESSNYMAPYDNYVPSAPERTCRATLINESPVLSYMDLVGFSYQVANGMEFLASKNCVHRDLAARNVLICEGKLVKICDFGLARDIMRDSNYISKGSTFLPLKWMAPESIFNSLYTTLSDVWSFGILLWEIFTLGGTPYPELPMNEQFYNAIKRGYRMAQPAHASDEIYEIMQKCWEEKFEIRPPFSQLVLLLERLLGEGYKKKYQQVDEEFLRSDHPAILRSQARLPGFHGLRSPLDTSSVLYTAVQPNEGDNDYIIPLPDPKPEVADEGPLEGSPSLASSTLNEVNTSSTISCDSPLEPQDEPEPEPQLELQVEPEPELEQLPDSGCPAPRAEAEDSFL
Sequence of ALK (Q9UM73 19-1620): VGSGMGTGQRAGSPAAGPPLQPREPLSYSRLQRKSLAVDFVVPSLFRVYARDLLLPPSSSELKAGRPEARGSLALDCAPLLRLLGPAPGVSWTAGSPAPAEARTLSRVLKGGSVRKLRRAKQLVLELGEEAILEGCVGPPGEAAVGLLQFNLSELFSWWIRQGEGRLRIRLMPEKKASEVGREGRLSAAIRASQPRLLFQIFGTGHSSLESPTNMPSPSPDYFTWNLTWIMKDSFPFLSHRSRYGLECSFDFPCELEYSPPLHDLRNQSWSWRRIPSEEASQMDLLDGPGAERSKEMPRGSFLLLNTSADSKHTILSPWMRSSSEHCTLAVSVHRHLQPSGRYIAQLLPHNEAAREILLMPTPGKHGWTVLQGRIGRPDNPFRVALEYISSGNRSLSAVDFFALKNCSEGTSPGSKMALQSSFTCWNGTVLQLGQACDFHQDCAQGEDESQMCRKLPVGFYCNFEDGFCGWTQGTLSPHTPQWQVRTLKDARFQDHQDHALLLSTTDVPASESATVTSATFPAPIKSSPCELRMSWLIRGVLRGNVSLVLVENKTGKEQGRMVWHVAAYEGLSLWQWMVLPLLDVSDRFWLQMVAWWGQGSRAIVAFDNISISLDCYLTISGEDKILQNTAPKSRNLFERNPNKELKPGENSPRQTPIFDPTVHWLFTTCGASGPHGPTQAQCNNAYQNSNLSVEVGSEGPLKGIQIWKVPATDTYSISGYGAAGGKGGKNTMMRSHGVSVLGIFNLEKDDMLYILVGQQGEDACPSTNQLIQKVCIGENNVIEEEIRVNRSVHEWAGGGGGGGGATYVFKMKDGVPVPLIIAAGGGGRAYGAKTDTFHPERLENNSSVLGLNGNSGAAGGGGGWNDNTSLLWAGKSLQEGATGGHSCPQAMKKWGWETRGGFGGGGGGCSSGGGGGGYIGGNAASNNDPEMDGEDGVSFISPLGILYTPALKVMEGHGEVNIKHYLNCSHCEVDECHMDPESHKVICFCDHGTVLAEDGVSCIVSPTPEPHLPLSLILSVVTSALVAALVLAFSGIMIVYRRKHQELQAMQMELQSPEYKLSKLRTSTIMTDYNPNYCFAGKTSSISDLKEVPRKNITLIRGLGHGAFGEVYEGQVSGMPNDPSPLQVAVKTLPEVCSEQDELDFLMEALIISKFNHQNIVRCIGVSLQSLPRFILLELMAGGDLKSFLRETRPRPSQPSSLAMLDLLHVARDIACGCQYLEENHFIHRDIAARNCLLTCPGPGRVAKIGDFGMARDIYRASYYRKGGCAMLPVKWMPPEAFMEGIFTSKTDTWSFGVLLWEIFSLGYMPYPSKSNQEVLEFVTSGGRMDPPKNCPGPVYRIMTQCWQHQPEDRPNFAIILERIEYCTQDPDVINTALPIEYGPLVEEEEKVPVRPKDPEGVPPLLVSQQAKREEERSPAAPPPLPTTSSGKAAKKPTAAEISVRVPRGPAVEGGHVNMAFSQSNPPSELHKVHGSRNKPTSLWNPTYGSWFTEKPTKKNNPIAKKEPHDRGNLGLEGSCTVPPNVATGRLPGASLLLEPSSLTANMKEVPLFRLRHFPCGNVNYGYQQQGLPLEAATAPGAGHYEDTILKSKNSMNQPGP

## C=CC(=O)Nc1cc(Nc2nccc(-n3ccc4cccnc43)n2)c(OC)cc1N(C)CCN(C)C [Compound 1, N-(5-((4-(1H-pyrrolo[2,3-b]pyridin-1-yl)pyrimidin-2-yl)amino)-2-((2-(dimethylamino)ethyl)(methyl)amino)-4-methoxyphenyl)acrylamide]
Respiratory rate
  effects on respiratory rate: no adverse effects on respiratory rate
[1]; 30 to 1000 mg/kg
  tolerability of a single oral dose: well tolerated
[1]; 14 days
  toxicity at 30 mg/kg/day: No significant toxicity
[1]; up to 14 days oral, estimated
  STD10: 100 mg/kg/day
NSCLC brain metastases; 25 mpk, control 28.5 Days
  Median survival: 80.5 days
NSCLC brain metastases; Compound 1 25-50 mg/kg, osimertinib 25 mg/kg
  brain metastases relative to control post-treatment: Reduced brain metastases
PDGFRB
  Kd: 5200 nM
ALK
  Kd: 250 nM
PDGFRA
  Kd: 1500 nM
[2]
  IC50: 4.39 nM
